The subject of assay [1] is Spodoptera frugiperda. Kind of assay: Spodoptera frugiperda spray test (maize leaf sections). In kind it is in vivo. The conditions noted are these: 144 h, after 6 d, read-out: Efficacy in % after 6 d (mortality). How it is done:
Solvent: 78.0 parts by weight acetone
• 1.5 parts by weight dimethylformamide Emulsifier: 0.5 parts by weight alkylarylpolyglycolether
To produce a suitable preparation of the active compound, 1 part by weight of active compound is mixed with the stated amount of solvent and emulsifier, and the concentrate is diluted with emulsifier-containing water to the desired concentration. To produce a suitable preparation of a spore suspension the spores are diluted with emulsifier—containing water to the desired concentration.
Maize (Zea mais) leaf sections are sprayed with a preparation of the active ingredient of the desired concentration. Once dry, the leaf sections are infested with fall armyworm larvae (Spodoptera frugiperda).
After the specified period of time, mortality in % is determined. 100% means all caterpillars have been killed and 0% means none of the caterpillars have been killed. The mortality values determined thus are recalculated using the Colby-formula (see sheet 1).

Assay [2] concerns Phaedon cochleariae. Kind of assay: Phaedon cochleariae spray test (Chinese cabbage leaf disks). In kind it is in vivo. Conditions: foliar, 144 h, after 6 d, read-out: Efficacy in % after 6 d (mortality). The method, then:
Solvent: 78.0 parts by weight of acetone
• 1.5 parts by weight of dimethylformamide Emulsifier: 0.5 parts by weight of alkylaryl polyglycolether
To produce a suitable preparation of active compound, 1 part by weight of active compound is mixed with the stated amount of solvent and emulsifier, and the concentrate is diluted with emulsifier—containing water to the desired concentration. To produce a suitable preparation of a spore suspension the spores are diluted with emulsifier—containing water to the desired concentration.
Chinese cabbage (Brassica pekinensis) leaf-disks are sprayed with a preparation of the active ingredient of the desired concentration. Once dry, the leaf disks are infested with mustard beetle larvae (Phaedon cochleariae).
After the specified period of time, mortality in % is determined. 100% means all beetle larvae have been killed and 0% means none of the beetle larvae have been killed. The mortality values determined thus are recalculated using the Colby-formula (see sheet 1).

Each structure is given as a SMILES string.

Turning to `Cc1cc(C(F)(C(F)(F)F)C(F)(F)F)ccc1NC(=O)c1cccc(Cl)c1C(=O)NC(C)(C)C#N` [(I-5)], the mortality at 0.25 g/ha in assay [1] (0.25 g ai/ha) turned out to be 0%. In assay [1] (0.8 g ai/ha), the mortality at 0.8 g/ha came out at 33%. In assay [1] (3 g ai/ha), the mortality at 3 g/ha was found to be 33%. The mortality at 2.5 g/ha in assay [2] (2.5 g ai/ha) worked out at 0%. Moreover, the mortality at 12 g/ha in assay [2] (12 g ai/ha) is 0%.

For orientation: mortality means the share of the test organisms that died.

The values are drawn from patent publication US9554573B2, “Binary insecticidal or pesticidal mixture” (BAYER CROPSCIENCE AKTIENGESELLSCHAFT, priority 2013, dated 2017).
